Legend:
[1] = test system: Female CD-1 mice; experiment: Tail-flick assay; type: in vivo; conditions: injection, % MPE, 10-second cut-off; for ED50: Mus musculus
Text: The tail flick assay is a commonly used animal model of analgesia. It is a stringent enough assay such that opiates (e.g., morphine) show activity in this model, whereas the non-steroidal antiinflammatories (NSAD's) such as ibuprofen are ineffective. As such, it is a useful assay system for investigating the utility of novel compounds for the treatment of severe and chronic pain.
Female CD-1 mice, weighing 20-30 grams were obtained from Charles River laboratories (Wilmington, Mass., USA). A commercially available tail-flick analgesia meter was used (Model TF-6 Analgesia Meter, Emdie Instrument Co., Maidens, Va.). […] A 10-second cut-off time was used as the maximum latency to avoid damage to the mice tails. The latency of each mouse (a mean of two separate test results for each time-point), was obtained at 0 (immediately prior to dosing), 5, 15, 30, and 60 min. time-points after injection of compounds and the % Maximum Possible Effect (% MPE) was calculated by using the formula, % MPE=[(postdrug latency−predrug latency)÷(cutoff time−predrug latency)]×100.

[2] = biological target: T1, cloned human M4 mAChRs (Homo sapiens, UniProt P08173); experiment: Binding to cloned human M4 mAChRs expressed in CHO-Kl cells; conditions: 2.5 nM 3H-oxotremorine M, CHO-Kl M4 membranes, pH 7
T1 construct: expressed in transfected cells; host or cells: CHO-K1 cells (membrane preparation)
T1 sequence (P08173 1-479): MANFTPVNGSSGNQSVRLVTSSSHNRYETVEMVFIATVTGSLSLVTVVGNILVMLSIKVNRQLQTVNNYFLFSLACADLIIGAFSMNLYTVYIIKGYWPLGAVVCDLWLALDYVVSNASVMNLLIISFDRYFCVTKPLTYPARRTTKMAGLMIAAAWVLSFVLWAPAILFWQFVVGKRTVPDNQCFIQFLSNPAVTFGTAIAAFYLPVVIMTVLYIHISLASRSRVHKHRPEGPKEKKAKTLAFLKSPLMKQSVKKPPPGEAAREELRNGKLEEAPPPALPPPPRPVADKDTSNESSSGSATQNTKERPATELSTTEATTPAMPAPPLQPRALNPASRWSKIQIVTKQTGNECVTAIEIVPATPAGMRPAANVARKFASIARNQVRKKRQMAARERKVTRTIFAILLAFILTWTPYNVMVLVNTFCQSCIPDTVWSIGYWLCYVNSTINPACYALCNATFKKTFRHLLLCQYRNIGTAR
Experimental: Binding to Cloned Human M4 […] Expressed in CHO-Kl Cells
The following protocol was used to detect binding to cloned human M4 mAChRs expressed in CHO-Kl cells.
A membrane preparation was made from CHO-Kl cells expressing human M4 mAChRs. Aliquots of membrane were stored at −70° C. until thawed on the day of assay. For each assay, CHO-Kl M4 membrane preparation (approximately 20 μg of protein) was incubated with test compound and 2.5 nM ^3H-oxotremorine M (DuPont, NEN) in 20 mM HEPES buffer, pH 7 in an assay volume of 200 μl. Assays were incubated in 96-well polypropylene plates for 40 minutes at room temperature. Nonspecific binding was determined in samples incubated in parallel in the presence of 10 μM atropine (Sigma) instead of test compound. The incubations were terminated by rapid vacuum filtration using a Packard plate harvester through 96-well Whatman GF/B filter plates presoaked in 0.5% polyethylenimine. The filter plate was washed rapidly four times with 0.2 ml aliquots of water. The plate was dried by placing under a heat lamp for 5 minutes. The plate was counted using a Packard scintillation counter after addition of 35 μl Microscint 20 scintillation fluid. Data were analyzed by nonlinear regression analysis.
Results from this assay are used to show the ability of compounds of this invention to bind to the agonist binding site of the muscarinic M4 receptor. Compounds which bind to this site have specific utility in the treatment of pain, schizophrenic disorders and cognitive disorders such as AD.

[3] = test system: Female CD-1 mice; experiment: Sedation by visual inspection; type: in vivo; conditions: at tail-flick ED50 dose
Text: Sedation was noted by close visual inspection of the animal.

[4] = test system: Female CD-1 mice; experiment: Body temperature (rectal probe); type: in vivo; conditions: at tail-flick ED50 dose; core temperature
Experimental: At ambient temperature, a temperature probe (type T Thermocouple Thermometer, BAT-10; Physitemp Inc., Clifton, N.J.) was inserted 1.0 cm into the rectum of mice to measure their core temperature and recorded at 0 (before drug as a control baseline), 10, 25 and 55 min after injection of compounds.

Structure (SMILES)	Tail-Flick ED50 [1]	Human M4 in CHO-K1 Assay [2]	ED50 [1]	Side Effect Profile at ED50 Dose: Sedation [3]	Side Effect Profile at ED50 Dose: Hypothermia [4]
CCOc1nsnc1C1C2CC3CC1CN3C2 (stereo not shown) [Cmpd 34, 4-(3-Azatricyclo[3.3.1.0<3,7>]non-9-yl)-3-ethoxy-1,2,5-thiadiazoles]	>2 mg/kg	4.6 nM			
CCCCOc1nsnc1C1C2CC3CC1CN(C3)C2 (stereo not shown) [Cmpd 14, 3-(5-azatricyclo[3.3.1.1<3,7>]dec-2-yl)-4-butoxy-1,2,5-thiadiazole]		3.8 nM	> 10 mg/kg	Slight	2.0 °C
CCSc1nsnc1C1C2CC3CC1CN(C3)C2 (stereo not shown) [Cmpd 30, 3-(5-Azatricyclo[3.3.1.1<3,7>]dec-2-yl)-4-ethylthio-1,2,5-thiadiazole]			0.3 mg/kg	Sedation	1 °C
CCCSc1nsnc1C1C2CC3CC1CN(C3)C2 (stereo not shown) [Cmpd 29, 3-(5-Azatricyclo[3.3.1.1<3,7>]dec-2-yl)-4-propylthio-1,2,5-thiadiazoles]	<1 mg/kg			Very slight	0.5 °C
CCCOc1nsnc1C1C2CC3CC1CN3C2 (stereo not shown) [Cmpd 36, 4-(3-Azatricyclo[3.3.1.0<3,7>]non-9-yl)-3-propyloxy-1,2,5-thiadiazoles]	>5 mg/kg	3.2 nM			
CCOc1nsnc1C1C2CC3CC1CN(C3)C2 (stereo not shown) [Cmpd 23, 3-(5-azatricyclo[3.3.1.1<3,7>]dec-2-yl)-4-ethoxy-1,2,5-thiadiazoles]	1.5 mg/kg	0.46 nM		No sedation	0.5 °C
CCCCOc1nsnc1C1C2CC3CC1CN(C3)C2 (stereo not shown) [Cmpd 13, 3-(5-azatricyclo[3.3.1.1<3,7>]dec-2-yl)-4-butoxy-1,2,5-thiadiazole]		10 nM			
C(CC1CC1)Oc1nsnc1C1C2CC3CC1CN(C3)C2 (stereo not shown) [Cmpd 25, 3-(5-azatricyclo[3.3.1.1<3,7>]dec-2-yl)-4-(cyclopropylethoxy)-1,2,5-thiadiazoles]	4.5 mg/kg			Slight	1.5 °C
CCC(C)Oc1nsnc1C1C2CC3CC1CN(C3)C2 (stereo not shown) [Cmpd 27, 3-(5-azatricyclo[3.3.1.1<3,7>]dec-2-yl)-4-(1-methyl-propoxy)-1,2,5-thiadiazoles]	>5 mg/kg	1.55 nM		No sedation	0 °C
C1CC1COc1nsnc1C1C2CC3CC1CN(C3)C2 (stereo not shown) [Cmpd 16, 3-(5-azatricyclo[3.3.1.1<3,7>]dec-2-yl)-4-(cyclopropylmethoxy)1,2,5-thiadiazole]		<1.4 nM	1.4 mg/kg	Sedation	1.5 °C
CCCCSc1nsnc1C1C2CC3CC1CN(C3)C2 (stereo not shown) [Cmpd 31, 3-(5-Azatricyclo[3.3.1.1<3,7>]dec-2-yl)-4-butylthio-1,2,5-thiadiazole]			0.3 mg/kg	No sedation	0 °C
CC(C)COc1nsnc1C1C2CC3CC1CN3C2 (stereo not shown) [Cmpd 38, 4-(3-Azatricyclo[3.3.1.0<3,7>]non-9-yl)-3-isobutyloxy-1,2,5-thiadiazoles]	>5 mg/kg				
C1CC1CSc1nsnc1C1C2CC3CC1CN(C3)C2 (stereo not shown) [Cmpd 32, 3-(5-Azatricyclo[3.3.1.1<3,7>]dec-2-yl)-4-(cyclopropylmethyl)thio-1,2,5-thiadiazole]			< 1 mg/kg	Sedation	<2 °C
CCCOc1nsnc1C1C2CC3CC1CN(C3)C2 (stereo not shown) [Cmpd 12, 3-(5-azatricyclo[3.3.1.1<3,7>]dec-2-yl)-4-propoxy-1,2,5-thiadiazole]		0.74 nM	4.5 mg/kg	Slight	1.0 °C
CC(C)COc1nsnc1C1C2CC3CC1CN(C3)C2 (stereo not shown) [Cmpd 18, 3-(5-azatricyclo[3.3.1.1<3,7>]dec-2-yl)-4-(2-methyl-propoxy)-1,2,5-thiadiazole]			> 5 mg/kg	No sedation	0 °C
Clc1nsnc1C1C2CC3CC1CN(C3)C2 (stereo not shown) [Cmpd 7, 3-(5-Azatricyclo[3.3.1.1<3,7>]dec-2-yl)-4-chloro-1,2,5-thiadiazole]		>88 nM			
COc1nsnc1C1C2CC3CC1CN(C3)C2 (stereo not shown) [Cmpd 21, 3-(5-azatricyclo[3.3.1.1<3,7>]dec-2-yl)-4-methoxy-1,2,5-thiadiazoles]	>5 mg/kg	5.9 nM		No sedation	0 °C
